Measurements taken from the NIST ThermoML archive (doi:10.1016/j.jct.2016.04.009).

Experiments:
[1] = Molar enthalpy of transition or fusion; details: DSC
[2] = molar heat capacity at constant pressure; details: 101.33 kPa
[3] = DSC

C[n+]1ccn(Cc2ccccc2)c1.F[B-](F)(F)F [1-benzyl-3-methylimidazolium tetrafluoroborate]
Details	Molar enthalpy of transition or fusion, [1] [kcal/mol]	Triple point temperature, [3] [K]
Crystal	4.57	346.2
Metastable crystal	3.97	336.5

[2]
Details	molar heat capacity at constant pressure [J/K/mol]
261.7 K, Crystal, Small sample (50 mg) DSC	292.62
265 K, Crystal, Small sample (50 mg) DSC	295.4
270 K, Crystal, Small sample (50 mg) DSC	299.6
275 K, Crystal, Small sample (50 mg) DSC	304.74
275.65 K, Metastable crystal, Small sample (50 mg) DSC	283.68
280 K, Crystal, Small sample (50 mg) DSC	309.29
280 K, Metastable crystal, Small sample (50 mg) DSC	287.35
285 K, Crystal, Small sample (50 mg) DSC	313.98
285 K, Metastable crystal, Small sample (50 mg) DSC	292.48
290 K, Crystal, Small sample (50 mg) DSC	319.04
290 K, Metastable crystal, Small sample (50 mg) DSC	298.09
295 K, Crystal, Small sample (50 mg) DSC	324.16
295 K, Metastable crystal, Small sample (50 mg) DSC	303.57
298.15 K, Crystal, Drop calorimetry	325.85
298.15 K, Metastable crystal, Drop calorimetry	304.61
300 K, Crystal, Small sample (50 mg) DSC	329.01
300 K, Metastable crystal, Small sample (50 mg) DSC	307.82
305 K, Crystal, Small sample (50 mg) DSC	333.82
305 K, Metastable crystal, Small sample (50 mg) DSC	312.26
310 K, Crystal, Small sample (50 mg) DSC	338.5
310 K, Metastable crystal, Small sample (50 mg) DSC	316.56
315 K, Crystal, Small sample (50 mg) DSC	343.23
315 K, Metastable crystal, Small sample (50 mg) DSC	320.92
318.98 K, Metastable crystal, Small sample (50 mg) DSC	324.78
320 K, Crystal, Small sample (50 mg) DSC	348.35
325 K, Crystal, Small sample (50 mg) DSC	353.67
328.42 K, Crystal, Small sample (50 mg) DSC	356.83
345.5 K, Small sample (50 mg) DSC, Liquid	417.35
350 K, Small sample (50 mg) DSC, Liquid	420.2
355 K, Small sample (50 mg) DSC, Liquid	423.44
357.55 K, Small sample (50 mg) DSC, Liquid	424.91

Details	Glass transition temperature [°C]
[3]	-37.8

C[n+]1ccn(Cc2ccccc2)c1.O=S(=O)([O-])C(F)(F)C(F)F
Crystal
Details	Molar enthalpy of transition or fusion [kcal/mol]	Triple point temperature [K]
[1]	5.64	–
[3]	–	315.4

[2]
Details	molar heat capacity at constant pressure [J/K/mol]
278.51 K, Crystal, Small sample (50 mg) DSC	393.57
283.62 K, Crystal, Small sample (50 mg) DSC	402.07
288.72 K, Crystal, Small sample (50 mg) DSC	411.24
293.83 K, Crystal, Small sample (50 mg) DSC	423.44
298.15 K, Crystal, Drop calorimetry	434.75
298.15 K, Metastable liquid, Drop calorimetry	509.51
334.67 K, Liquid, Small sample (50 mg) DSC	527.08
339.77 K, Liquid, Small sample (50 mg) DSC	530.26
344.88 K, Liquid, Small sample (50 mg) DSC	533.48
349.98 K, Liquid, Small sample (50 mg) DSC	537.12
355.09 K, Liquid, Small sample (50 mg) DSC	540.53

Details	Glass transition temperature [°C]
[3]	-44.0

C[n+]1ccn(Cc2ccccc2)c1.[Cl-] [1-benzyl-3-methyl-1H-imidazolium chloride]
molar heat capacity at constant pressure [J/K/mol], [2]
Details	Crystal	Metastable liquid
261.06 K, Small sample (50 mg) DSC	238.97	–
265 K, Small sample (50 mg) DSC	243.67	–
270 K, Small sample (50 mg) DSC	252.99	–
275 K, Small sample (50 mg) DSC	261.15	–
277.11 K, Small sample (50 mg) DSC	–	329.64
280 K, Small sample (50 mg) DSC	269.17	330.72
285 K, Small sample (50 mg) DSC	278.83	332.88
289.14 K, Small sample (50 mg) DSC	288.47	–
290 K, Small sample (50 mg) DSC	–	335.29
295 K, Small sample (50 mg) DSC	–	338
298.15 K, Drop calorimetry	–	338.43
300 K, Small sample (50 mg) DSC	–	340.37
305 K, Small sample (50 mg) DSC	–	342.49
310 K, Small sample (50 mg) DSC	–	344.71
315 K, Small sample (50 mg) DSC	–	346.85
320 K, Small sample (50 mg) DSC	–	348.98
325 K, Small sample (50 mg) DSC	–	351.32
330 K, Small sample (50 mg) DSC	–	353.53
335 K, Small sample (50 mg) DSC	–	355.73
340 K, Small sample (50 mg) DSC	–	358
345 K, Small sample (50 mg) DSC	–	360.85
350 K, Small sample (50 mg) DSC	–	363.87
355 K, Small sample (50 mg) DSC	–	367.01

Details	Glass transition temperature [°C]
[3]	-8.4
